Experimental data published in patent US9409952B2, “Peptide-compound cyclization method” (Chugai Seiyaku Kabushiki Kaisha, priority 2011, dated 2016).
Where two headings read alike, the source gives them in different places. Starred links: 1 amine or outer side, 2 acyl side, 3 side chain; linkers in the order of their positions; H or OH if unused. Positions of bridges follow the written chain, without caps; N, C: chain ends. Non-standard residues stand in square brackets, D forms with d. Residues, ends and D or L forms follow the SMILES beside them. ξ: configuration not given here. *: point of attachment. Phe(4-(CH2)5CO) = O=C([C@H](Cc1ccc(CCCCCC(=O)[*:3])cc1)N[*:1])[*:2]; Phe(3-(CH2)4CO) = O=C([C@H](Cc1cccc(CCCCC(=O)[*:3])c1)N[*:1])[*:2]; NMeF = CN[C@@H](Cc1ccccc1)C(=O)O; NMeGABA = CN(CCCC(=O)[*:2])[*:1]; NMeI = CC[C@H](C)[C@H](NC)C(=O)O; NMeL = CN[C@@H](CC(C)C)C(=O)O; ξNMeF = CNC(Cc1ccccc1)C(=O)O; NMeV = CN[C@H](C(=O)O)C(C)C; NMeS = CN[C@@H](CO)C(=O)O; NMeA = CN[C@@H](C)C(=O)O; Piperidide = C1CCN(*)CC1; dNMeA = CN[C@H](C)C(=O)O; β3hA = C[C@H](N)CC(=O)O; NPrGly = CCCNCC(=O)O; Sar = CNCC(=O)O; tBu = CC(C)(C)*

Tests used:
[1] = PAMPA (parallel artificial membrane permeability assay); type: in vitro ADME; details: PAMPA
Summary of the method: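 Artificial membrane was 10% (w/v) egg lecithin plus 0.5% (w/v) cholesterol in dodecane on a PVDF filter. A 10 mM DMSO stock was added at 0.5% (v/v) to donor buffer (50 mM MOPSO, pH 6.5, 5.0% glycocholic acid). After 18 h at 37 °C, LC/MS or LC/UV gave donor and acceptor levels for Pe.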

[2] = Metabolic stability in human hepatic microsome; type: in vitro ADME; details: microsomes
[3] = membrane permeation rate (Pe), 50 mM MOPSO buffer pH 6.5 with 5.0% glycocholic acid, 37° C., 18 hours, read-out: iPAMPA Pe
[4] = pH 7.4, human hepatic microsome, NADPH(+), read-out: CL NADPH(+)

Compound | Papp at 18 hours, 50 µM [1, 3] [×10⁻⁶ cm/s] | microsomal CLint at 1 uM [2, 4] [µL/min/mg] | Papp at 18 hours, 50 µM ([1]; pH 6.5) [×10⁻⁶ cm/s] | microsomal CLint at 1 uM ([2]; human, pH 7.4, CL NADPH(+)) [µL/min/mg]
CC(C)C[C@H]1C(=O)N(C)[C@@H](CC(C)C)C(=O)N[C@@H](COC(C)(C)C)C(=O)N[C@H](C(=O)N2CCCCC2)CC(=O)N[C@@H](C(C)C)C(=O)N(C)[C@@H](Cc2ccccc2)C(=O)N(C)CC(=O)N[C@@H]([C@@H](C)O)C(=O)N1C [DP-694] (V[NMeF][Sar]T[NMeL][NMeL]S(tBu)D-Piperidide; lactam N-8) | 33 | 170 |  | 
CC[C@H](C)[C@H]1C(=O)N(C)[C@@H](CC(C)C)C(=O)N[C@H](C(=O)N2CCCCC2)CC(=O)N[C@H](C)C(=O)N(C)[C@@H](CC(C)C)C(=O)N[C@@H](CC(C)C)C(=O)N(C)[C@@H](Cc2ccccc2)C(=O)N[C@@H](COC(C)(C)C)C(=O)N(C)[C@@H](Cc2ccccc2)C(=O)N[C@@H]([C@@H](C)O)C(=O)N(C)[C@@H](C)C(=O)N1C [DP-96] ([dA][NMeL]L[NMeF]S(tBu)[NMeF]T[NMeA][NMeI][NMeL]D-Piperidide; lactam N-11) |  |  | 13 | 51
CC(C)C[C@H]1C(=O)N(C)[C@@H](Cc2ccccc2)C(=O)N(C)[C@@H](CC(C)C)C(=O)N[C@H](C(=O)N2CCCCC2)CC(=O)N[C@H](C)C(=O)N[C@@H](C)C(=O)N[C@@H]([C@@H](C)O)C(=O)N(C)[C@@H](C)C(=O)N[C@@H](Cc2ccccc2)C(=O)N1C [DP-263] ([dA]AT[NMeA]F[NMeL][NMeF][NMeL]D-Piperidide; lactam N-9) | 34 | 136 |  | 
CC[C@H](C)[C@@H]1NC(=O)[C@H](C)N(C)C(=O)[C@H](CC(C)C)N(C)C(=O)[C@@H](C(C)C)NC(=O)C[C@@H](C(=O)N(C)[C@@H](Cc2ccccc2)C(=O)N[C@@H](C)C(=O)N2CCCCC2)NC(=O)[C@H]([C@@H](C)O)NC(=O)[C@H](CC(C)C)N(C)C(=O)[C@H](Cc2ccccc2)N(C)C(=O)[C@H](CC(C)C)N(C)C(=O)[C@H](Cc2ccccc2)N(C)C1=O [DP-190] ([dV][NMeL][NMeA]I[NMeF][NMeL][NMeF][NMeL]TD[NMeF]A-Piperidide; lactam N-10) | 0.6 | 3 |  | 
CC[C@H](C)[C@H]1C(=O)N(C)[C@@H](Cc2ccccc2)C(=O)NCC(=O)N[C@@H]([C@@H](C)O)C(=O)N[C@@H](Cc2ccccc2)C(=O)N(C)[C@@H](CC(C)C)C(=O)N2CCC[C@H]2C(=O)N[C@H](C(=O)N2CCCCC2)CC(=O)N[C@H](C)C(=O)N[C@@H](CC(C)C)C(=O)N(C)[C@@H](C)C(=O)N[C@@H](CC(C)C)C(=O)N1C [DP-54] ([dA]L[NMeA]L[NMeI][NMeF]GTF[NMeL]PD-Piperidide; lactam N-12) |  |  | 15 | 13
CC[C@H](C)[C@H]1C(=O)N[C@H](C(=O)N2CCCCC2)Cc2ccc(cc2)CCCCCC(=O)N[C@@H](CC(C)C)C(=O)N2CCC[C@H]2C(=O)N[C@@H](C(C)C)C(=O)N[C@@H](Cc2ccccc2)C(=O)N(C)CC(=O)N[C@@H](CC(C)C)C(=O)N[C@@H](C)C(=O)N1C [DP-879] (LPVF[Sar]LA[NMeI][Phe(4-(CH2)5CO)]-Piperidide; lactam N-9) | 35 | 239 |  | 
CC[C@H](C)[C@H]1C(=O)N[C@H](C(=O)N(C)[C@@H](Cc2ccccc2)C(=O)N(C)[C@@H](Cc2ccccc2)C(=O)N[C@@H](C)C(=O)N2CCCCC2)CC(=O)N(C)CC(=O)N(C)[C@@H](C)C(=O)N[C@@H]([C@@H](C)O)C(=O)N(C)[C@@H](C)C(=O)N(C)[C@@H](CC(C)C)C(=O)N(C)[C@@H](Cc2ccccc2)C(=O)N[C@@H](C(C)C)C(=O)N(C)[C@@H](CC(C)C)C(=O)N1C [DP-302] ([Sar][NMeA]T[NMeA][NMeL][NMeF]V[NMeL][NMeI]D[NMeF][NMeF]A-Piperidide; lactam N-10) |  |  | 18 | 102
CC(C)C[C@@H]1NC(=O)[C@H](CC(C)C)N(C)C(=O)[C@H](C(C)C)NC(=O)[C@H](CC(C)C)N(C)C(=O)CN(C)C(=O)[C@H](C(C)C)NC(=O)[C@H](CO)N(C)C(=O)[C@H](CC(C)C)N(C)C(=O)C[C@H](C)NC(=O)[C@H](CC(C)C)N(C)C(=O)[C@@H](C)NC1=O [DP-653] (cyclo(L[dA][NMeL][β3hA][NMeL][NMeS]V[Sar][NMeL]V[NMeL])) | 33 | 235 |  | 
CC(C)C[C@H]1C(=O)NCC(=O)N(C)[C@@H](Cc2ccccc2)C(=O)N(C)[C@@H](C(C)C)C(=O)N[C@@H]([C@@H](C)O)C(=O)N[C@H](C(=O)N(C)[C@@H](Cc2ccccc2)C(=O)N(C)[C@@H](Cc2ccccc2)C(=O)N[C@@H](C)C(=O)N2CCCCC2)CC(=O)N(C)CC(=O)N[C@@H](C(C)C)C(=O)N(C)[C@@H](CC(C)C)C(=O)N[C@@H](Cc2ccccc2)C(=O)N1C [DP-303] ([Sar]V[NMeL]F[NMeL]G[NMeF][NMeV]TD[NMeF][NMeF]A-Piperidide; lactam N-10) |  |  | 1.2 | 27
CC(C)C[C@H]1C(=O)N(C)[C@@H](Cc2ccccc2)C(=O)N(C)[C@@H](CC(C)C)C(=O)N[C@@H]([C@@H](C)O)C(=O)N(C)CC(=O)N[C@@H](COC(C)(C)C)C(=O)N(C)[C@@H](CC(C)C)C(=O)N[C@H](C(=O)N2CCCCC2)CC(=O)N1C [DP-689] ([NMeL][NMeF][NMeL]T[Sar]S(tBu)[NMeL]D-Piperidide; lactam N-8) | 44 | 103 |  | 
CC(C)C[C@H]1C(=O)N(C)[C@@H](Cc2ccccc2)C(=O)NCC(=O)N(C)[C@@H](Cc2ccccc2)C(=O)N(C)[C@@H](C)C(=O)N[C@@H]([C@@H](C)O)C(=O)N[C@H](C(=O)N(C)[C@@H](Cc2ccccc2)C(=O)N(C)[C@@H](Cc2ccccc2)C(=O)N[C@@H](C)C(=O)N2CCCCC2)CC(=O)N(C)[C@H](C)C(=O)N[C@@H](C(C)C)C(=O)N1C [DP-213] ([dNMeA]V[NMeL][NMeF]G[NMeF][NMeA]TD[NMeF][NMeF]A-Piperidide; lactam N-9) | 55 | 71 |  | 
CC[C@H](C)[C@@H]1NC(=O)[C@H](Cc2ccccc2)NC(=O)[C@@H]2CCCN2C(=O)[C@H](CC(C)C)N(C)C(=O)[C@H](Cc2ccccc2)NC(=O)[C@H](CC(C)C)NC(=O)[C@H]([C@@H](C)O)NC(=O)CCCCc2cccc(c2)C[C@@H](C(=O)N2CCCCC2)NC(=O)[C@H](CC(C)C)NC(=O)CN(C)C1=O [DP-901] (TLF[NMeL]PFI[Sar]L[Phe(3-(CH2)4CO)]-Piperidide; lactam N-10) | 23 | 131 |  | 
CC[C@H](C)[C@H]1C(=O)N[C@@H](COC(C)(C)C)C(=O)N(C)[C@@H](C(C)C)C(=O)N[C@@H](C)CC(=O)N(C)[C@@H](C)C(=O)N(C)[C@@H](Cc2ccccc2)C(=O)N[C@@H](CC(C)C)C(=O)N(C)[C@@H](CC(C)C)C(=O)N[C@@H]([C@@H](C)O)C(=O)N(C)CC(=O)N1C [DP-820] (cyclo(L[NMeL]T[Sar][NMeI]S(tBu)[NMeV][β3hA][NMeA][NMeF])) | 48 | 511 |  | 
CCCN1CC(=O)N(C)[C@@H](Cc2ccccc2)C(=O)N(C)[C@@H](Cc2ccccc2)C(=O)N(C)[C@@H](CC(C)C)C(=O)N2CCC[C@H]2C(=O)N(C)[C@@H](CC(C)C)C(=O)N[C@@H](C)C(=O)N(C)[C@@H](C(C)C)C(=O)N[C@H](C(=O)N2CCCCC2)CC(=O)N(C)[C@@H](C)C(=O)N[C@@H]([C@@H](C)O)C1=O [DP-541] ([NMeA]T[NPrGly][NMeF][NMeF][NMeL]P[NMeL]A[NMeV]D-Piperidide; lactam N-11) |  |  | 23 | 22
CC[C@H](C)[C@H]1C(=O)N[C@@H](Cc2ccccc2)C(=O)N(C)[C@@H](Cc2ccccc2)C(=O)N[C@@H]([C@@H](C)O)C(=O)N2CCC[C@H]2C(=O)N[C@@H](CC(C)C)C(=O)N[C@H](C(=O)N2CCCCC2)Cc2cccc(c2)CCCCC(=O)N[C@@H](C(C)C)C(=O)N(C)CC(=O)N[C@@H](CC(C)C)C(=O)N(C)[C@@H](CC(C)C)C(=O)N[C@@H](C)C(=O)N1C [DP-896] (V[Sar]L[NMeL]A[NMeI]F[NMeF]TPL[Phe(3-(CH2)4CO)]-Piperidide; lactam N-12) | 13 | 57 |  | 
CC[C@H](C)[C@@H]1NC(=O)[C@H](C)NC(=O)C[C@@H](C(=O)N2CCCCC2)NC(=O)[C@H](Cc2ccccc2)NC(=O)[C@H](C(C)C)N(C)C(=O)[C@H](CC(C)C)NC(=O)[C@H](C)N(C)C(=O)[C@H](Cc2ccccc2)N(C)C(=O)[C@H]([C@@H](C)O)NC(=O)CN(C)C(=O)[C@H](CC(C)C)N(C)C(=O)[C@@H]2CCCN2C1=O [DP-9] (AIP[NMeL][Sar]T[NMeF][NMeA]L[NMeV]FD-Piperidide; lactam N-12) | 13 | 18 |  | 
CC(C)C[C@@H]1NC(=O)[C@H]([C@@H](C)O)NC(=O)[C@@H]2CCCN2C(=O)CNC(=O)[C@H](CC(C)C)N(C)C(=O)[C@H](Cc2ccccc2)NC(=O)[C@H](CC(C)C)N(C)C(=O)[C@H](CC(C)C)N(C)C(=O)[C@H](Cc2ccccc2)NC(=O)CN(C)C(=O)C[C@@H](C(=O)N(C)C(Cc2ccccc2)C(=O)N[C@@H](C)C(=O)N2CCCCC2)NC1=O (stereo partly drawn) [DP-185] ([Sar]F[NMeL][NMeL]F[NMeL]GPTLD[ξNMeF]A-Piperidide; lactam N-11) | 46 | 19 |  | 
CC(C)C[C@H]1C(=O)N(C)[C@@H](CC(C)C)C(=O)N[C@H](C(=O)N2CCCCC2)CC(=O)N(C)CCCC(=O)N(C)[C@@H](Cc2ccccc2)C(=O)N[C@@H]([C@@H](C)O)C(=O)N(C)[C@@H](CC(C)C)C(=O)N[C@@H](COC(C)(C)C)C(=O)N1C [DP-686] ([NMeGABA][NMeF]T[NMeL]S(tBu)[NMeL][NMeL]D-Piperidide; lactam N-8) | 36 | 227 |  | 
